Test results reported in patent publication US20070191490A1, “Withacnistin compounds for treatment of cancer” (priority 2006, published 2007).

Tests used:
JAK2 = assay: Total JAK2 levels in A549 cells; type: cell-based, human; details: 10 μM, data not shown
Protocol: As further support of the specific antiphosphotyrosine STAT3, but not antiphosphotyrosine JAK2, activity of withacnistin, A549 cells, as well as two breast carcinoma cell lines (MDA-MB-435 and MDA-MB-468) that also express constitutively activated JAK2 and STAT3, were treated with the withacnistin mixture at various concentrations, and determined IC50 values of inhibition of STAT3 and JAK2 activation. […] In all three cell lines, JAK2 activation was not inhibited at withacnistin concentrations as high as 10 μM. […] Thus, in all three cell lines, withacnistin (Wit) inhibits specifically STAT3 but not JAK2 activation and Cuc A inhibits JAK2 but not STAT3 activation whereas Cuc I inhibits the activation of both STAT3 and JAK2.

A549 tumors = assay: Antitumor activity in nude mouse xenograft model, A549; type: in vivo; details: nude mice, 1 mg/kg/day i.p., Wit = withacnistin mixture
Text: (§1) Antitumor activity in the nude mouse tumor xenograft model. Nude mice (Charles River, Wilmington, Mass., USA) were maintained in accordance with the Institutional Animal Care and Use Committee (IACUC) procedures and guidelines. A549 cells were harvested, resuspended in PBS, and injected subcutaneously (s.c.) into the right and left flank (1×10^7 cells per flank) of 8-week-old female nude mice as reported previously (Blaskovich, M. A. et al. Cancer Res., 2003, 63:1270-1279). When tumors reached about 150 mm^3, animals were randomized (four animals per group; two tumors per animal) and dosed intraperitoneally (i.p.) either with cucurbitacin analogs (0.5 or 1 mg/kg/day, i.p.) in 20% DMSO in water or with an equal volume of vehicle control. The tumor volumes were determined by measuring the length (l) and the width (w) and calculating the volume (V=lw^2/2) as described previously (Blaskovich, M. A. et al. Cancer Res., 2003, 63:1270-1279). Statistical significance between control and treated animals were evaluated by using Student's t-test.
(§2) To determine the ability of the cucurbitacin analogs and withacnistin to inhibit tumor growth in vivo, the antitumor activity of the cucurbitacin analogs and withacnistin against both A549 and v-Src/3T3 tumors in a nude mouse xenograft model was evaluated. When the tumors became palpable (at volumes of approximately 100-150 mm^3), the mice were treated either with vehicle control or 1 mg/kg/day of the cucurbitacins or the withacnistin mixture. Tumor volumes were monitored by caliper measurement as previously described (Blaskovich, M. A. et al. Cancer Res., 2003, 63:1270-1279) and under Materials and Methods.

v-Src/3T3 tumors = assay: Antitumor activity in nude mouse xenograft model, v-Src/3T3; type: in vivo; details: v-Src/3T3 xenograft, nude mice, 1 mg/kg/day i.p.; Wit = withacnistin mixture
Text: as §1, §2
Withacnistin inhibited 57% of tumor growth while Cuc I, B, and E inhibited 45, 40, and 42% of tumor growth, respectively (FIG. 3 and Table 2).

phosphotyrosine STAT3 = assay: P-STAT3 immunohistochemistry of A549 tumor sections; type: in vivo, nude mice; details: 1 mg/kg/day; for P-STAT3 positive cells: termination day, control 76.5±1.4%
Protocol: P-STAT3 immunohistochemistry. On the termination day of the A549 antitumor experiment, tumors were extracted and fixed in 10% neutral-buffered formalin for 6 hours. After fixation, the tissue samples were processed into paraffin blocks. Tissue sections (5 μm) were dewaxed with xylene and rehydrated through descending alcohol to deionized water and then placed in PBS. Antigens were retrieved briefly with citrate buffer, pH 6.0, in a microwave followed by a mild trypsinization (0.025% trypsin in 50 mM Tris buffer containing 0.05% calcium chloride, pH 7.6). From this point, all steps were carried out in a DAKO Autostainer (DakoCytomation California, Inc., Carpinteria, Calif., USA). Sections were rinsed three times in TBS-Tween buffer, pH 7.6, then endogenous peroxidases were quenched with 3% hydrogen peroxide and nonspecific binding with 2% normal goat serum in 3% BSA/PBS. Sections then were incubated overnight with 1:400 phospho-STAT3 (Cell Signaling Technologies) at 4° C. in a humidified chamber. Detection was performed using the Elite ABC Rabbit kit (Vector Laboratories) and DAB chromogen (DakoCytomation California, Inc.) according to the manufacturer's instructions. Slides were counterstained for 20-30 seconds with modified Mayer's hematoxylin, dehydrated through ascending alcohol, cleared, and mounted with resinous mounting medium. Quantification was performed by counting both the phospho-STAT3-positive and -negative cells on slides representative of eight tumors and significance was determined by Student's t-test.
To determine whether phosphotyrosine STAT3 is targeted by withacnistin in vivo, and to determine if the results seen in cell culture concerning induction of apoptosis were occurring in tumors from animals treated with withacnistin, on the termination day of the A549 antitumor experiment, tumors from animals treated with Cuc A, Cuc I, and the withacnistin mixture, as well as vehicle control, were extracted and fixed in 10% neutral-buffered formalin and then processed into paraffin blocks for tissue sectioning. These tissue sections were stained separately with either TUNEL for determination of apoptosis, or phosphotyrosine STAT3 to determine if the signaling protein is inhibited in the tumors.

Row | SMILES | total JAK2 levels (JAK2) | % Inhibition of tumor growth (A549 tumors) | % Inhibition of tumor growth (v-Src/3T3 tumors) | inhibition of phosphotyrosine-STAT3 compared to vehicle control (phosphotyrosine STAT3) | P-STAT3 positive cells (phosphotyrosine STAT3)
1 | CC(=O)OC(C)(C)/C=C/C(=O)[C@](C)(O)[C@H]1[C@H](O)C[C@@]2(C)[C@@H]3CC=C4[C@@H](C[C@H](O)C(=O)C4(C)C)[C@]3(CO)C(=O)C[C@]12C [Cuc A, cucurbitacin A] | none of the three compounds affects | 11.1% | 16% | no inhibition | 80.8±1.8%
2 | CC(C)(O)/C=C/C(=O)[C@](C)(O)[C@H]1[C@H](O)C[C@@]2(C)[C@@H]3CC=C4[C@@H](C=C(O)C(=O)C4(C)C)[C@]3(C)C(=O)C[C@]12C [Cuc I, cucurbitacin I] | none of the three compounds affects | 55.4% | 45% | 28.5% | 54.7±4.5%
3 | CC(=O)OC[C@]12CC[C@H]3[C@@H](C[C@H]4O[C@]45[C@@H](O)C=CC(=O)[C@]35C)[C@@H]1CC[C@@H]2[C@H](C)[C@H]1CC(C)=C(C)C(=O)O1 [withacnistin] | none of the three compounds affects | 73.1% | 57% | 70.5% | 22.6±7.3%
